US9850283B2, “Macrocyclic inhibitors of the PD-1/PD-L1 and CD80(B7-1)/PD-L1 protein/protein interactions” (BRISTOL-MYERS SQUIBB COMPANY, priority 2013, dated 2017)
Positions of bridges follow the written chain, without caps; N, C: chain ends. Non-standard residues stand in square brackets, D forms with d. Residues, ends and D or L forms follow the SMILES beside them. ξ: configuration not given here. Bta = N[C@@H](Cc1csc2ccccc12)C(=O)O; Hyp = O=C(O)[C@@H]1C[C@@H](O)CN1; NMeNle = CCCC[C@H](NC)C(=O)O; NMeM = CN[C@@H](CCSC)C(=O)O; NMeA = CN[C@@H](C)C(=O)O; Dap = NC[C@H](N)C(=O)O; ξC = NC(CS)C(=O)O

How the values were obtained:
Human PD-L1/PD-1 = molecular target: T1, Human PD-L1/PD-1 (Homo sapiens, UniProt Q9NZQ7); assay: HTRF PD-1-Ig/PD-L1-His binding assay (human PD-L1); details: cluster symbol; read-out: HTRF IC50 cluster
T1 construct: made in house; host or cells: HEK293T
Outline: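 Readout: time-resolved FRET between Eu cryptate-labeled anti-Ig (1 nM final) and APC-labeled anti-His (20 nM final) antibodies. These detect interaction of Fc-fused PD-1 with His-tagged human PD-L1 in dPBS containing 0.1% BSA and 0.05% Tween-20.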

[1] = molecular target: T2, LK35.2-hPD-L1 cells / PE-labeled PD-1-Ig (Homo sapiens, UniProt Q9NZQ7); assay: LK35.2-hPD-L1 cell binding high-content screening assay; assay type: cell-based; details: cell binding assay, cell line not given; cluster symbol; read-out: CBA IC50 cluster
T2 construct: expressed in transfected cells; host or cells: LK35.2 mouse B cell line
Outline: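 Compound effect on PD-1/PD-L1 binding is measured by imaging cell-associated phycoerythrin signal. Human PD-1-Ig (PE on Ig tag, 1 nM final) is applied with compound to a murine B cell line overexpressing human PD-L1 for 1 h at 37 °C in serum-containing RPMI.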

T2 sequence (Q9NZQ7 19-290): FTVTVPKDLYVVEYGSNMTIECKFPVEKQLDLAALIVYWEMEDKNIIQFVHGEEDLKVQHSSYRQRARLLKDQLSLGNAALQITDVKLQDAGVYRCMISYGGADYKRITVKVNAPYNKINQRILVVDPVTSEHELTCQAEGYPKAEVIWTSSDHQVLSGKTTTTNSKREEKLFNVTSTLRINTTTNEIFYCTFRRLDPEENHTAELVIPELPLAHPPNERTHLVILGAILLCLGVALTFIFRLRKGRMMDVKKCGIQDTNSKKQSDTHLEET
T1 sequence (Q9NZQ7 with tags, fused parts or gaps): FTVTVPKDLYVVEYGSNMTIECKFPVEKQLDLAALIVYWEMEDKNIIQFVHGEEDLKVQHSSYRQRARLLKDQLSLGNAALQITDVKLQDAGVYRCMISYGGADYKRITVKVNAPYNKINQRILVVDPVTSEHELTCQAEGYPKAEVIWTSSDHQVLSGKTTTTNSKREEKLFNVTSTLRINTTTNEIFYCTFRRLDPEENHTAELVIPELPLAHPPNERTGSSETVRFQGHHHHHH

| Compound | IC50 (Human PD-L1/PD-1) | IC50 [1] |
| --- | --- | --- |
| CCCC[C@H]1C(=O)N(C)[C@@H](CCCC)C(=O)N[C@@H](CCCNC(=N)N)C(=O)NC(C(=O)N[C@@H](CO)C(N)=O)CSCC(=O)N[C@@H](Cc2ccc(O)cc2)C(=O)N(C)[C@@H](C)C(=O)N[C@@H](CC(N)=O)C(=O)N2CCC[C@H]2C(=O)N[C@@H](Cc2cnc[nH]2)C(=O)N[C@@H](CO)C(=O)N2CCC[C@H]2C(=O)N[C@@H](Cc2c[nH]c3ccccc23)C(=O)N[C@@H](CO)C(=O)N[C@@H](Cc2csc3ccccc23)C(=O)N1C (stereo partly drawn) [Example 9076] ({CH2CO}-Y[NMeA]NPHSPWS[Bta][NMeNle][NMeNle]R[ξC]S-NH2; thioether N-14) | 0.385 to 6.74 nM | 4.78 to 72.9 nM |
| CCCC[C@H]1C(=O)N(C)[C@@H](CCCC)C(=O)N[C@@H](CCCNC(=N)N)C(=O)NC(C(=O)N[C@@H](CO)C(N)=O)CSCC(=O)N[C@@H](Cc2ccc(O)cc2)C(=O)N(C)[C@@H](C)C(=O)N[C@@H](CC(N)=O)C(=O)N2CCC[C@H]2C(=O)N[C@@H](Cc2cnc[nH]2)C(=O)N[C@@H](CO)C(=O)N2CCC[C@H]2C(=O)N[C@@H](Cc2c[nH]c3ccccc23)C(=O)N[C@@H](CO)C(=O)N[C@@H](Cc2c[nH]c3ccccc23)C(=O)N1C (stereo partly drawn) [Example 9077] ({CH2CO}-Y[NMeA]NPHSPWSW[NMeNle][NMeNle]R[ξC]S-NH2; thioether N-14) | 6.76 to 30.3 nM | 4.78 to 72.9 nM |
| CCCC[C@H]1C(=O)N(C)[C@@H](CCCC)C(=O)N[C@@H](CCCNC(=N)N)C(=O)NC(C(=O)N[C@@H](CO)C(N)=O)CSCC(=O)N[C@@H](Cc2ccc(O)cc2)C(=O)N(C)[C@@H](C)C(=O)N[C@@H](CC(N)=O)C(=O)N2CCC[C@H]2C(=O)N[C@@H](CO)C(=O)N[C@@H](CC(C)C)C(=O)N2C[C@H](O)C[C@H]2C(=O)N[C@@H](Cc2c[nH]c3ccccc23)C(=O)N[C@@H](CO)C(=O)N[C@@H](Cc2c[nH]c3ccccc23)C(=O)N1C (stereo partly drawn) [Example 9080] ({CH2CO}-Y[NMeA]NPSL[Hyp]WSW[NMeNle][NMeNle]R[ξC]S-NH2; thioether N-14) | 0.385 to 6.74 nM | 0.158 to 4.71 nM |
| CCCC[C@H]1C(=O)N(C)[C@@H](CCSC)C(=O)N[C@@H](CCCNC(=N)N)C(=O)NC(C(=O)NCC(N)=O)CSCC(=O)N[C@@H](Cc2ccc(O)cc2)C(=O)N(C)[C@@H](C)C(=O)N[C@@H](CC(N)=O)C(=O)N2CCC[C@H]2C(=O)N[C@@H](CN)C(=O)N[C@@H](CC(C)C)C(=O)N2CCC[C@H]2C(=O)N[C@@H](Cc2c[nH]c3ccccc23)C(=O)N[C@@H](CO)C(=O)N[C@@H](Cc2csc3ccccc23)C(=O)N1C (stereo partly drawn) [Example 9082] ({CH2CO}-Y[NMeA]NP[Dap]LPWS[Bta][NMeNle][NMeM]R[ξC]G-NH2; thioether N-14) | 0.385 to 6.74 nM | 0.158 to 4.71 nM |
| CCCC[C@H]1C(=O)N(C)[C@@H](CCSC)C(=O)N[C@@H](CCCNC(=N)N)C(=O)NC(C(=O)NCC(N)=O)CSCC(=O)N[C@@H](Cc2ccc(O)cc2)C(=O)N(C)[C@@H](C)C(=O)N[C@@H](CC(N)=O)C(=O)N2CCC[C@H]2C(=O)N[C@@H](CN)C(=O)N[C@@H](CC(C)C)C(=O)N2C[C@H](O)C[C@H]2C(=O)N[C@@H](Cc2c[nH]c3ccccc23)C(=O)N[C@@H](CO)C(=O)N[C@@H](Cc2c[nH]c3ccccc23)C(=O)N1C (stereo partly drawn) [Example 9083] ({CH2CO}-Y[NMeA]NP[Dap]L[Hyp]WSW[NMeNle][NMeM]R[ξC]G-NH2; thioether N-14) | 6.76 to 30.3 nM | 0.158 to 4.71 nM |
| CCCC[C@H]1C(=O)N(C)[C@@H](CCSC)C(=O)N[C@@H](C)C(=O)NC(C(=O)NCC(N)=O)CSCC(=O)N[C@@H](Cc2ccc(O)cc2)C(=O)N(C)[C@@H](C)C(=O)N[C@@H](CC(N)=O)C(=O)N2CCC[C@H]2C(=O)N[C@@H](CN)C(=O)N[C@@H](CC(C)C)C(=O)N2CCC[C@H]2C(=O)N[C@@H](Cc2c[nH]c3ccccc23)C(=O)N[C@@H](CO)C(=O)N[C@@H](Cc2csc3ccccc23)C(=O)N1C (stereo partly drawn) [Example 9086] ({CH2CO}-Y[NMeA]NP[Dap]LPWS[Bta][NMeNle][NMeM]A[ξC]G-NH2; thioether N-14) | 0.385 to 6.74 nM | 0.158 to 4.71 nM |
| CCCC[C@H]1C(=O)N(C)[C@@H](CCSC)C(=O)N[C@@H](C)C(=O)NC(C(=O)NCC(N)=O)CSCC(=O)N[C@@H](Cc2ccc(O)cc2)C(=O)N(C)[C@@H](C)C(=O)N[C@@H](CC(N)=O)C(=O)N2CCC[C@H]2C(=O)N[C@@H](CN)C(=O)N[C@@H](CC(C)C)C(=O)N2C[C@H](O)C[C@H]2C(=O)N[C@@H](Cc2c[nH]c3ccccc23)C(=O)N[C@@H](CO)C(=O)N[C@@H](Cc2c[nH]c3ccccc23)C(=O)N1C (stereo partly drawn) [Example 9087] | 0.385 to 6.74 nM | 0.158 to 4.71 nM |
| CCCC[C@H]1C(=O)N[C@@H](CCCNC(=N)N)C(=O)NC(C(=O)NCC(N)=O)CSCC(=O)N[C@@H](Cc2ccc(O)cc2)C(=O)N(C)[C@@H](C)C(=O)N[C@@H](CC(N)=O)C(=O)N2CCC[C@H]2C(=O)N[C@@H](CN)C(=O)N[C@@H](CC(C)C)C(=O)N2CCC[C@H]2C(=O)N[C@@H](Cc2c[nH]c3ccccc23)C(=O)N[C@@H](CO)C(=O)N[C@@H](Cc2c[nH]c3ccccc23)C(=O)N(C)[C@@H](CCSC)C(=O)N1C (stereo partly drawn) [Example 9089] ({CH2CO}-Y[NMeA]NP[Dap]LPWSW[NMeM][NMeNle]R[ξC]G-NH2; thioether N-14) | 0.385 to 6.74 nM | 0.158 to 4.71 nM |

Results, then the molecule that gave them:

| IC50 (Human PD-L1/PD-1) | IC50 [1] | Compound |
| --- | --- | --- |
| 0.385 to 6.74 nM | 0.158 to 4.71 nM | CCCC[C@H]1C(=O)N(C)[C@@H](CCCC)C(=O)N[C@@H](CCCNC(=N)N)C(=O)NC(C(=O)N[C@@H](CO)C(N)=O)CSCC(=O)N[C@@H](Cc2ccc(O)cc2)C(=O)N(C)[C@@H](C)C(=O)N[C@@H](CC(N)=O)C(=O)N2CCC[C@H]2C(=O)N[C@@H](CO)C(=O)N[C@@H](CC(C)C)C(=O)N2C[C@H](O)C[C@H]2C(=O)N[C@@H](Cc2c[nH]c3ccccc23)C(=O)N[C@@H](CO)C(=O)N[C@@H](Cc2csc3ccccc23)C(=O)N1C (stereo partly drawn) [Example 9075] ({CH2CO}-Y[NMeA]NPSL[Hyp]WS[Bta][NMeNle][NMeNle]R[ξC]S-NH2; thioether N-14) |
| 6.76 to 30.3 nM | 0.158 to 4.71 nM | CCCC[C@H]1C(=O)N(C)[C@@H](CCCC)C(=O)N[C@@H](CCCNC(=N)N)C(=O)NC(C(=O)N[C@@H](CO)C(N)=O)CSCC(=O)N[C@@H](Cc2ccc(O)cc2)C(=O)N(C)[C@@H](C)C(=O)N[C@@H](CC(N)=O)C(=O)N2CCC[C@H]2C(=O)N[C@@H](Cc2cnc[nH]2)C(=O)N[C@@H](CO)C(=O)N2C[C@H](O)C[C@H]2C(=O)N[C@@H](Cc2c[nH]c3ccccc23)C(=O)N[C@@H](CO)C(=O)N[C@@H](Cc2csc3ccccc23)C(=O)N1C (stereo partly drawn) [Example 9078] ({CH2CO}-Y[NMeA]NPHS[Hyp]WS[Bta][NMeNle][NMeNle]R[ξC]S-NH2; thioether N-14) |
| 0.385 to 6.74 nM | 4.78 to 72.9 nM | CCCC[C@H]1C(=O)N(C)[C@@H](CCCC)C(=O)N[C@@H](CCCNC(=N)N)C(=O)NC(C(=O)N[C@@H](CO)C(N)=O)CSCC(=O)N[C@@H](Cc2ccc(O)cc2)C(=O)N(C)[C@@H](C)C(=O)N[C@@H](CC(N)=O)C(=O)N2CCC[C@H]2C(=O)N[C@@H](Cc2cnc[nH]2)C(=O)N[C@@H](CO)C(=O)N2C[C@H](O)C[C@H]2C(=O)N[C@@H](Cc2c[nH]c3ccccc23)C(=O)N[C@@H](CO)C(=O)N[C@@H](Cc2c[nH]c3ccccc23)C(=O)N1C (stereo partly drawn) [Example 9079] ({CH2CO}-Y[NMeA]NPHS[Hyp]WSW[NMeNle][NMeNle]R[ξC]S-NH2; thioether N-14) |
| 0.385 to 6.74 nM | 0.158 to 4.71 nM | CCCC[C@H]1C(=O)N(C)[C@@H](CCSC)C(=O)N[C@@H](CCCNC(=N)N)C(=O)NC(C(=O)NCC(N)=O)CSCC(=O)N[C@@H](Cc2ccc(O)cc2)C(=O)N(C)[C@@H](C)C(=O)N[C@@H](CC(N)=O)C(=O)N2CCC[C@H]2C(=O)N[C@@H](CN)C(=O)N[C@@H](CC(C)C)C(=O)N2CCC[C@H]2C(=O)N[C@@H](Cc2c[nH]c3ccccc23)C(=O)N[C@@H](CO)C(=O)N[C@@H](Cc2c[nH]c3ccccc23)C(=O)N1C (stereo partly drawn) [Example 9081] ({CH2CO}-Y[NMeA]NP[Dap]LPWSW[NMeNle][NMeM]R[ξC]G-NH2; thioether N-14) |
| 0.385 to 6.74 nM | 0.158 to 4.71 nM | CCCC[C@H]1C(=O)N(C)[C@@H](CCSC)C(=O)N[C@@H](CCCNC(=N)N)C(=O)NC(C(=O)NCC(N)=O)CSCC(=O)N[C@@H](Cc2ccc(O)cc2)C(=O)N(C)[C@@H](C)C(=O)N[C@@H](CC(N)=O)C(=O)N2CCC[C@H]2C(=O)N[C@@H](CN)C(=O)N[C@@H](CC(C)C)C(=O)N2C[C@H](O)C[C@H]2C(=O)N[C@@H](Cc2c[nH]c3ccccc23)C(=O)N[C@@H](CO)C(=O)N[C@@H](Cc2csc3ccccc23)C(=O)N1C (stereo partly drawn) [Example 9084] ({CH2CO}-Y[NMeA]NP[Dap]L[Hyp]WS[Bta][NMeNle][NMeM]R[ξC]G-NH2; thioether N-14) |
| 0.385 to 6.74 nM | 4.78 to 72.9 nM | CCCC[C@H]1C(=O)N(C)[C@@H](CCSC)C(=O)N[C@@H](C)C(=O)NC(C(=O)NCC(N)=O)CSCC(=O)N[C@@H](Cc2ccc(O)cc2)C(=O)N(C)[C@@H](C)C(=O)N[C@@H](CC(N)=O)C(=O)N2CCC[C@H]2C(=O)N[C@@H](CN)C(=O)N[C@@H](CC(C)C)C(=O)N2CCC[C@H]2C(=O)N[C@@H](Cc2c[nH]c3ccccc23)C(=O)N[C@@H](CO)C(=O)N[C@@H](Cc2c[nH]c3ccccc23)C(=O)N1C (stereo partly drawn) [Example 9085] ({CH2CO}-Y[NMeA]NP[Dap]LPWSW[NMeNle][NMeM]A[ξC]G-NH2; thioether N-14) |
| 0.385 to 6.74 nM | 0.158 to 4.71 nM | CCCC[C@H]1C(=O)N(C)[C@@H](CCSC)C(=O)N[C@@H](C)C(=O)NC(C(=O)NCC(N)=O)CSCC(=O)N[C@@H](Cc2ccc(O)cc2)C(=O)N(C)[C@@H](C)C(=O)N[C@@H](CC(N)=O)C(=O)N2CCC[C@H]2C(=O)N[C@@H](CN)C(=O)N[C@@H](CC(C)C)C(=O)N2C[C@H](O)C[C@H]2C(=O)N[C@@H](Cc2c[nH]c3ccccc23)C(=O)N[C@@H](CO)C(=O)N[C@@H](Cc2csc3ccccc23)C(=O)N1C (stereo partly drawn) [Example 9088] ({CH2CO}-Y[NMeA]NP[Dap]L[Hyp]WS[Bta][NMeNle][NMeM]A[ξC]G-NH2; thioether N-14) |
